Each structure is given as a SMILES string.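 Cells were grown in 96-well plates and exposed to each compound for 48 hours at five concentrations; endpoints were interpolated linearly between bracketing concentrations, or set to the highest concentration if not reached. Abbreviation: GI50, concentration required for 50% inhibition of growth.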 Active and inactive are the calls of the source. Cut-off read from the data, not from the text of the source: active = GI50 up to about 1.1 µM and inactive = higher.

Among the test systems are A498; COLO 205; DU-145; HL-60; HT-29; Hs-578T; M14; MDA-N; NCI-H522; OVCAR-3; OVCAR-8; PC-3; SF-268; SF-539; SK-MEL-5; SK-OV-3; SNB-19; SR; UACC-62; UO-31.
Common to all, as to assay: NCI-60 cell line screen, 48 h

As to `CCCC1=C(OC)C(=O)c2c(C)cc(Cl)nc2C1=O`, the GI50 in the assay with A498 was 20.2 µM (inactive); in the assay on COLO 205, 7.93 µM (inactive); in the assay on DU-145, 15.1 µM (inactive); with HL-60, 1.45 µM (inactive); in the assay on HT-29, 4.3 µM (inactive); in the assay with Hs-578T, 3.75 µM (inactive). Also, the GI50 is 7 µM (inactive) in the assay with M14; 1.73 µM (inactive) with MDA-N; 2.43 µM (inactive) in the assay with NCI-H522; 2.81 µM (inactive) with OVCAR-3; 8.89 µM (inactive) with OVCAR-8; 9.08 µM (inactive) in the assay on PC-3. For the same compound, the GI50 is 7.08 µM (inactive) with SF-268; 7.43 µM (inactive) in the assay with SF-539; 4.06 µM (inactive) in the assay with SK-MEL-5; 17 µM (inactive) in the assay on SK-OV-3; 14.7 µM (inactive) in the assay with SNB-19; 2.11 µM (inactive) in the assay on SR. The GI50 was 3.3 µM (inactive) in the assay on UACC-62 and 13.5 µM (inactive) in the assay with UO-31.

`CCOC(=O)C1=C(N)N(c2ccccc2)/C(=C2\SC(=S)N(c3ccc(C)cc3)C2=O)S1`: the GI50 in the assay on A498 is 31.4 µM (inactive); in the assay on COLO 205, > 100 µM (inactive); with DU-145 it was 89.9 µM (inactive); with HL-60, 71.6 µM (inactive); in the assay with HT-29, 47.3 µM (inactive); with Hs-578T it was 25 µM (inactive). For the same compound, the GI50 in the assay with M14 is > 100 µM (inactive); with MDA-N, > 100 µM (inactive); in the assay with NCI-H522, 34.3 µM (inactive); with OVCAR-3 it was 27.9 µM (inactive); in the assay with OVCAR-8 it was 33.3 µM (inactive); with PC-3 it was 51.4 µM (inactive). The GI50 in the assay on SF-268 is 29.5 µM (inactive); in the assay with SF-539, 14.8 µM (inactive); in the assay with SK-MEL-5 it was 54.8 µM (inactive); in the assay with SK-OV-3 it was 26.9 µM (inactive); with SNB-19, 29.7 µM (inactive); with SR it was > 100 µM (inactive). Besides, the values for the GI50 in the assay with UACC-62 and in the assay on UO-31 were 88.7 µM (inactive) and 68.2 µM (inactive), respectively.

As for `CCCCCCCCCCCCCCCCCCNc1ccn(C2OC(COP(=O)(O)OCC3OC(n4cc(F)c(NCCCCCCCCCCCCCCCCCC)nc4=O)CC3O)C(O)C2O)c(=O)n1` (stereo unspecified), the GI50 with A498 is 25.8 µM (inactive); with COLO 205 it was > 100 µM (inactive); with DU-145, > 100 µM (inactive); in the assay with HL-60, > 100 µM (inactive); with HT-29, > 100 µM (inactive); in the assay on Hs-578T, > 100 µM (inactive). The GI50 was > 100 µM (inactive) with M14; > 100 µM (inactive) in the assay on MDA-N; 38.9 µM (inactive) in the assay with NCI-H522; > 100 µM (inactive) in the assay with OVCAR-3; 43.6 µM (inactive) in the assay with OVCAR-8; 56.8 µM (inactive) with PC-3. Also, the GI50 in the assay with SF-268 is > 100 µM (inactive); with SF-539, > 100 µM (inactive); in the assay with SK-MEL-5, > 100 µM (inactive); with SK-OV-3 it was > 100 µM (inactive); with SNB-19, 66.8 µM (inactive); with SR it was > 100 µM (inactive). The GI50 in the assay with UACC-62 and in the assay on UO-31 was > 100 µM (inactive) throughout.

As to `CCCCCCOc1ccc(C(=O)NO)cc1`, the GI50 in the assay with A498 was 13 µM (inactive); with COLO 205, 9.51 µM (inactive); in the assay with DU-145, 8.05 µM (inactive); with HL-60, 1.81 µM (inactive); with HT-29, 7.57 µM (inactive); in the assay with Hs-578T, 19.6 µM (inactive). Also, the GI50 in the assay on M14 is 11.9 µM (inactive); in the assay on MDA-N it was 13.2 µM (inactive); with NCI-H522, 3.14 µM (inactive); in the assay on OVCAR-3, 6.03 µM (inactive); with OVCAR-8, 5.08 µM (inactive); in the assay with PC-3, 9.51 µM (inactive). Also, the GI50 in the assay on SF-268 is 5.64 µM (inactive); in the assay on SF-539 it was 11.3 µM (inactive); with SK-MEL-5, 15.7 µM (inactive); in the assay on SK-OV-3 it was 10.5 µM (inactive); in the assay with SNB-19, 17.8 µM (inactive); in the assay on SR, 1.19 µM (inactive). Moreover, the GI50 in the assay with UACC-62 is 6.82 µM (inactive); with UO-31, 6.08 µM (inactive).

`CCNC(=O)/C(=C/c1ccc(OC)cc1)c1cc(OC)c(OC)c(OC)c1`: the GI50 is 14.9 µM (inactive) in the assay on A498; 5.11 µM (inactive) in the assay on COLO 205; 13.3 µM (inactive) in the assay on DU-145; 2.96 µM (inactive) with HL-60; 3.41 µM (inactive) with HT-29; 5.26 µM (inactive) with Hs-578T. Further, the GI50 was 9.29 µM (inactive) in the assay with M14; 1.58 µM (inactive) in the assay with MDA-N; 4.92 µM (inactive) in the assay with NCI-H522; 3.78 µM (inactive) with OVCAR-3; 21.3 µM (inactive) in the assay on OVCAR-8; 3.52 µM (inactive) with PC-3. For the same compound, the GI50 with SF-268 is 13.8 µM (inactive); with SF-539, 7.87 µM (inactive); with SK-MEL-5 it was 3.71 µM (inactive); in the assay with SK-OV-3 it was 6.85 µM (inactive); with SNB-19 it was 12.5 µM (inactive); with SR it was 4.17 µM (inactive). Besides, the GI50 was 3.8 µM (inactive) in the assay on UACC-62 and 20.1 µM (inactive) in the assay on UO-31.

Take `CN(CCN1CCCC1)C1CCc2cc(Cl)c(Cl)cc2C1` (stereo unspecified): the GI50 is 13.2 µM (inactive) with A498; 3.6 µM (inactive) in the assay on COLO 205; 13.2 µM (inactive) in the assay on DU-145; 12.6 µM (inactive) in the assay on HL-60; 10.4 µM (inactive) in the assay with HT-29; 29.9 µM (inactive) in the assay on Hs-578T. For the same compound, the GI50 in the assay on M14 is 15 µM (inactive); in the assay on MDA-N, 9.2 µM (inactive); in the assay with NCI-H522, 17.2 µM (inactive); in the assay with OVCAR-3 it was 17.1 µM (inactive); in the assay with OVCAR-8 it was 16.2 µM (inactive); in the assay on PC-3, 20 µM (inactive). The GI50 is 17.1 µM (inactive) in the assay on SF-268; 16.1 µM (inactive) in the assay with SF-539; 11.1 µM (inactive) with SK-MEL-5; 17.5 µM (inactive) in the assay with SK-OV-3; 19.7 µM (inactive) in the assay on SNB-19; 20.5 µM (inactive) with SR. Moreover, the GI50 in the assay with UACC-62 is 5.71 µM (inactive); in the assay with UO-31 it was 13.2 µM (inactive).

For `CC(C)(C)C1CCC2c3c([nH]c4ccccc34)C3C(=O)N(c4ccc5c(c4)C(=O)c4ccccc4C5=O)C(=O)C3C2C1` (stereo unspecified), the GI50 with A498, with COLO 205, in the assay on DU-145, with HL-60, in the assay on HT-29 and in the assay on Hs-578T was > 100 µM (inactive) each time. The GI50 in the assay on M14, in the assay with MDA-N, in the assay with NCI-H522, in the assay with OVCAR-3, with OVCAR-8 and in the assay with PC-3 was > 100 µM (inactive) in each case. The GI50 in the assay on SF-268, in the assay with SF-539, in the assay on SK-MEL-5, in the assay on SK-OV-3, in the assay on SNB-19 and in the assay with SR was > 100 µM (inactive) each time. The GI50 with UACC-62 was > 100 µM (inactive).

Regarding `CCC(C)N1CN(c2ccccc2)C2(CCN(CCCC(=O)c3ccc(F)cc3)CC2)C1=O` (stereo unspecified), the GI50 in the assay on A498 was 2.82 µM (inactive); in the assay with COLO 205, 0.193 µM (active); with DU-145, 0.927 µM (active); in the assay on HL-60 it was 4.76 µM (inactive); with HT-29, 0.429 µM (active); in the assay with Hs-578T, 13.7 µM (inactive). For the same compound, the GI50 in the assay with M14 was 14.3 µM (inactive); with MDA-N it was 11.7 µM (inactive); with NCI-H522, 7.85 µM (inactive); in the assay with OVCAR-3 it was 11.9 µM (inactive); with OVCAR-8 it was > 10 µM (inactive); in the assay on PC-3 it was 10.6 µM (inactive). Moreover, the GI50 with SF-268 was 6.7 µM (inactive); in the assay on SF-539, 7.71 µM (inactive); in the assay with SK-MEL-5 it was 1.19 µM (inactive); in the assay with SK-OV-3, 9.29 µM (inactive); in the assay on SR, 5.98 µM (inactive); in the assay on UACC-62, 16.6 µM (inactive). Besides, the GI50 in the assay on UO-31 is 4.17 µM (inactive).

For `CC(=O)/C(=C\Nc1c(C)n(C)n(C)c1=O)C(=O)c1ccccc1`, the GI50 in the assay on A498, with COLO 205, in the assay with DU-145, in the assay on HL-60, in the assay with HT-29 and with Hs-578T was > 50 µM (inactive) throughout. For the same compound, the GI50 in the assay on M14, in the assay on MDA-N, in the assay on NCI-H522, with OVCAR-3, in the assay on PC-3 and in the assay with SF-268 was > 50 µM (inactive) throughout. The GI50 in the assay with SF-539, in the assay on SK-MEL-5, with SK-OV-3, in the assay with SNB-19, in the assay with SR and with UACC-62 was > 50 µM (inactive) each time. Further, the GI50 in the assay on UO-31 is > 50 µM (inactive).

In the case of `CSc1cnn(CCC#N)c(=O)n1`, the GI50 in the assay with A498 was 74 µM (inactive); in the assay on COLO 205, > 100 µM (inactive); in the assay on DU-145, > 100 µM (inactive); in the assay on HL-60 it was 33.2 µM (inactive); in the assay on HT-29, > 100 µM (inactive); in the assay on Hs-578T, > 100 µM (inactive). Also, the GI50 with M14, in the assay with MDA-N, in the assay with NCI-H522, with OVCAR-8, with PC-3 and in the assay with SF-268 was > 100 µM (inactive) each time. Further, the GI50 in the assay with SF-539 was > 100 µM (inactive); with SK-MEL-5, 26.4 µM (inactive); in the assay on SK-OV-3, > 100 µM (inactive); with SNB-19, > 100 µM (inactive); with SR, 40.9 µM (inactive); with UACC-62, > 100 µM (inactive). For the same compound, the GI50 in the assay on UO-31 was > 100 µM (inactive).

The values are drawn from ChEMBL document CHEMBL1201862, “PubChem BioAssay data set” (2004).
